Reference: the supplement of paper PMC4862054

These molecules were tested on MDA-MB-453 (assay: normalised viability (% of control), CellTiter-Blue; higher = more viable cells (about 100 = DMSO control)). Details: 30 nM; incubation time: 72 h.
Procedure, shortened: (§1)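 Vehicle (100) and a positive kill control (0) anchored the normalisation of each plate, and Z'-factor was used for quality control. Breast cancer cell lines in 20 µl suspension were incubated 72 h over compound in 5 µl medium in 384-well plates, followed by CellTiter-Blue at 560/590 nm. The value is normalised viability at a single listed concentration of the series.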

Structure (SMILES) | normalised viability
CC1=C(/C=C/C(C)=C/C=C/C(C)=C/C(=O)O)C(C)(C)CCC1 [Tretinoin] | 103%

Same assay, conditions: 100 nM; incubation time: 72 h

Structure (SMILES) | normalised viability
Nc1nc(F)nc2c1ncn2[C@@H]1O[C@H](CO)[C@@H](O)[C@@H]1O [Fludarabine] | 103%
O=C(O)C1(C(=O)O)CCC1.[NH2-].[NH2-].[Pt+2] [Carboplatin] | 102%
N#Cc1ccc(C(c2ccc(C#N)cc2)n2cncn2)cc1 [Letrozole] | 93.1%
C1CN1c1nc(N2CC2)nc(N2CC2)n1 [Triethylenemelamine] | 122%
CCCS(=O)(=O)Nc1ccc(F)c(C(=O)c2c[nH]c3ncc(-c4ccc(Cl)cc4)cc23)c1F [Vemurafenib] | 80.1%
O=C(O)C(=O)O.[NH-][C@@H]1CCCC[C@H]1[NH-].[Pt+2] [Oxaliplatin] | 113%
Cc1ccc(-c2cc(C(F)(F)F)nn2-c2ccc(S(N)(=O)=O)cc2)cc1 [Celecoxib] | 103%
NCCCNCCSP(=O)(O)O [Amifostine] | 86.7%
C[C@H]1C[C@@H]2[C@H]([C@@H](O)C[C@@]3(C)[C@H]2CC[C@]3(O)C(=O)CO)[C@@]2(C)C=CC(=O)C=C12 [Methylprednisolone] | 75.3%
CCc1cncnc1N1CCN(Cc2nc3ccc(C(F)(F)F)cc3[nH]2)CC1 | 103%
Oc1ncc(N(CCCl)CCCl)c(O)n1 [Uracil mustard] | 101%
CC1=C(/C=C/C(C)=C/C=C/C(C)=C/C(=O)O)C(C)(C)CCC1 [Tretinoin] | 105%

What follows are molecules tested on HCC1599 in the same assay as above. Details: 1 nM; incubation time: 72 h.
Procedure, shortened: as §1

Structure (SMILES) | normalised viability
COc1cc2c(Oc3ccc4[nH]c(C)cc4c3F)ncnc2cc1OCCCN1CCCC1 [Cediranib] | 101%
C=CC(=O)N1CCC[C@@H](n2nc(-c3ccc(Oc4ccccc4)cc3)c3c(N)ncnc32)C1 | 104%
Cc1cnc(NC(=O)Nc2cc(Br)c(C)cc2OC[C@@H]2CNCCO2)cn1 | 112%

Same assay, conditions: 10 nM; incubation time: 72 h

Structure (SMILES) | normalised viability
Nc1nc(F)nc2c1ncn2[C@@H]1O[C@H](CO)[C@@H](O)[C@@H]1O [Fludarabine] | 102%
O=C(O)C1(C(=O)O)CCC1.[NH2-].[NH2-].[Pt+2] [Carboplatin] | 94.5%
N#Cc1ccc(C(c2ccc(C#N)cc2)n2cncn2)cc1 [Letrozole] | 81.2%
C1CN1c1nc(N2CC2)nc(N2CC2)n1 [Triethylenemelamine] | 90.9%
CCCS(=O)(=O)Nc1ccc(F)c(C(=O)c2c[nH]c3ncc(-c4ccc(Cl)cc4)cc23)c1F [Vemurafenib] | 77.6%
O=C(O)C(=O)O.[NH-][C@@H]1CCCC[C@H]1[NH-].[Pt+2] [Oxaliplatin] | 87.3%
Cc1ccc(-c2cc(C(F)(F)F)nn2-c2ccc(S(N)(=O)=O)cc2)cc1 [Celecoxib] | 99%
NCCCNCCSP(=O)(O)O [Amifostine] | 102%
C[C@H]1C[C@@H]2[C@H]([C@@H](O)C[C@@]3(C)[C@H]2CC[C@]3(O)C(=O)CO)[C@@]2(C)C=CC(=O)C=C12 [Methylprednisolone] | 105%
CCc1cncnc1N1CCN(Cc2nc3ccc(C(F)(F)F)cc3[nH]2)CC1 | 77.2%
Oc1ncc(N(CCCl)CCCl)c(O)n1 [Uracil mustard] | 82.1%
CC1=C(/C=C/C(C)=C/C=C/C(C)=C/C(=O)O)C(C)(C)CCC1 [Tretinoin] | 114%

Same assay, conditions: 100 nM; incubation time: 72 h

Structure (SMILES) | normalised viability
COc1cc2c(Oc3ccc4[nH]c(C)cc4c3F)ncnc2cc1OCCCN1CCCC1 [Cediranib] | 114%
C=CC(=O)N1CCC[C@@H](n2nc(-c3ccc(Oc4ccccc4)cc3)c3c(N)ncnc32)C1 | 83.3%
Cc1cnc(NC(=O)Nc2cc(Br)c(C)cc2OC[C@@H]2CNCCO2)cn1 | 95.7%

Same assay, conditions: 1000 nM; incubation time: 72 h

Structure (SMILES) | normalised viability
Nc1nc(F)nc2c1ncn2[C@@H]1O[C@H](CO)[C@@H](O)[C@@H]1O [Fludarabine] | 82.6%
O=C(O)C1(C(=O)O)CCC1.[NH2-].[NH2-].[Pt+2] [Carboplatin] | 90.7%
N#Cc1ccc(C(c2ccc(C#N)cc2)n2cncn2)cc1 [Letrozole] | 70.7%
C1CN1c1nc(N2CC2)nc(N2CC2)n1 [Triethylenemelamine] | 92.9%
CCCS(=O)(=O)Nc1ccc(F)c(C(=O)c2c[nH]c3ncc(-c4ccc(Cl)cc4)cc23)c1F [Vemurafenib] | 87.6%
O=C(O)C(=O)O.[NH-][C@@H]1CCCC[C@H]1[NH-].[Pt+2] [Oxaliplatin] | 79.6%
Cc1ccc(-c2cc(C(F)(F)F)nn2-c2ccc(S(N)(=O)=O)cc2)cc1 [Celecoxib] | 95.7%
NCCCNCCSP(=O)(O)O [Amifostine] | 72.4%
COc1cc2c(Oc3ccc4[nH]c(C)cc4c3F)ncnc2cc1OCCCN1CCCC1 [Cediranib] | 76.7%
C[C@H]1C[C@@H]2[C@H]([C@@H](O)C[C@@]3(C)[C@H]2CC[C@]3(O)C(=O)CO)[C@@]2(C)C=CC(=O)C=C12 [Methylprednisolone] | 102%
CCc1cncnc1N1CCN(Cc2nc3ccc(C(F)(F)F)cc3[nH]2)CC1 | 83%
C=CC(=O)N1CCC[C@@H](n2nc(-c3ccc(Oc4ccccc4)cc3)c3c(N)ncnc32)C1 | 82.6%
Oc1ncc(N(CCCl)CCCl)c(O)n1 [Uracil mustard] | 78.4%
Cc1cnc(NC(=O)Nc2cc(Br)c(C)cc2OC[C@@H]2CNCCO2)cn1 | 65.7%
CC1=C(/C=C/C(C)=C/C=C/C(C)=C/C(=O)O)C(C)(C)CCC1 [Tretinoin] | 77.4%

Same assay, conditions: 10000 nM; incubation time: 72 h

Structure (SMILES) | normalised viability
Nc1nc(F)nc2c1ncn2[C@@H]1O[C@H](CO)[C@@H](O)[C@@H]1O [Fludarabine] | 89.5%
O=C(O)C1(C(=O)O)CCC1.[NH2-].[NH2-].[Pt+2] [Carboplatin] | 87.1%
N#Cc1ccc(C(c2ccc(C#N)cc2)n2cncn2)cc1 [Letrozole] | 81.9%
C1CN1c1nc(N2CC2)nc(N2CC2)n1 [Triethylenemelamine] | 83.3%
CCCS(=O)(=O)Nc1ccc(F)c(C(=O)c2c[nH]c3ncc(-c4ccc(Cl)cc4)cc23)c1F [Vemurafenib] | 90.9%
O=C(O)C(=O)O.[NH-][C@@H]1CCCC[C@H]1[NH-].[Pt+2] [Oxaliplatin] | 70%
Cc1ccc(-c2cc(C(F)(F)F)nn2-c2ccc(S(N)(=O)=O)cc2)cc1 [Celecoxib] | 65.6%
NCCCNCCSP(=O)(O)O [Amifostine] | 81.7%
C[C@H]1C[C@@H]2[C@H]([C@@H](O)C[C@@]3(C)[C@H]2CC[C@]3(O)C(=O)CO)[C@@]2(C)C=CC(=O)C=C12 [Methylprednisolone] | 92.5%
